The METLIN SMRT retention time set (Domingo-Almenara et al. 2019)

Assay: gradient 5% acetonitrile 3 min, to 50% in 2 min, to 85% in 15 min, held 3 min, 100 µL/min
Conditions: column: Zorbax Extend-C18 2.1 x 50 mm; eluents: water / acetonitrile, 0.1% formic acid
In short: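 Over 3 months, pure standards in mixtures of ~100 molecules were run by HPLC coupled to a quadrupole time-of-flight mass spectrometer in positive and negative ionization mode. The column was a Zorbax Extend-C18 (2.1 × 50 mm, 1.8 μm) at 100 μL/min, eluted with water and acetonitrile each holding 0.1% formic acid, with 40 μL dead and 900 μL dwell volumes. Retention time was determined from adduct peaks chosen by software and checked manually.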

| SMILES | RP-LC retention time |
| --- | --- |
| COc1ccc(C(=O)N2CCC3(CC2)NC(=O)c2ccc(F)cc2N3C)c(OC)c1 | 715 s |
| CS(=O)(=O)N(Cc1cccnc1)C1CN(C(=O)c2ccc3ccccc3n2)C1 | 615 s |
| Cn1cnc2c(C(=O)Nc3ccc(F)c(Cl)c3)nn(-c3ccccc3)c2c1=O | 976 s |
| O=C(NC1CCCCC1)C1CCCN(c2nnc3ccc(Cl)cn23)C1 (stereo not drawn) | 778 s |
| CCCN(CC1CCOC1)C(=O)C1CCCCC1 (stereo not drawn) | 827 s |
| Cc1nc2ccn(Cc3cccnc3)c(=O)c2cc1C(=O)NCCc1ccco1 | 598 s |
| O=C(c1cc(C2CC2)[nH]n1)N1CC(n2cc(COCc3ccccc3)nn2)C1 | 730 s |
| Cc1ccn2cc(-c3ccc(NC(=O)c4ccccc4F)cc3)nc2n1 | 634 s |
| CN1CCN(CCNC(=O)c2ccc3ccnc(N4CCN(c5ccc(F)cc5)CC4)c3c2)CC1 | 580 s |
| CC(=O)c1cc2c(cc1NC(=O)c1cn(Cc3ccc(C)cc3)nn1)OCO2 | 1030 s |
| CCN(CC)S(=O)(=O)c1ccc(Cl)c(-c2nnc(-c3ccc(OC)cc3)o2)c1 | 1090 s |
| CCCNC(=O)N1CCCN(Cc2ccc3c(c2)OCO3)c2ccccc21 | 924 s |
| CCOc1ccc(-c2nc(C3CC(=O)N(c4ccc(OC)c(OC)c4)C3)no2)cc1 (stereo not drawn) | 912 s |
| CC(C)N1CCN(Cc2nc(Cn3ccn4nc(-c5ccccc5)cc4c3=O)no2)CC1 | 647 s |
| CCn1nccc1C(=O)N1C[C@@H]2CCCN3CCC[C@@H]([C@H]23)[C@H]1CCCC(=O)N1CCOCC1 | 572 s |
| COc1ccc(OCC(=O)N2CCC(C(=O)NCCc3csc(-c4ccccc4)n3)CC2)cc1 | 818 s |
| CSc1ccc(CNC(=O)COc2cc(C)nc(N3CCCC3)n2)cc1 | 648 s |
| Cc1ccc(-c2csc(NC(=O)COc3ccc(Cl)cc3C)n2)cc1 | 1350 s |
| COC(=O)C1=CN(C)c2cc(N3CCC(Cc4ccccc4)CC3)c(F)cc2S1(=O)=O | 1100 s |
| O=C(CNC(=O)c1cccc(Cl)c1)Nc1nc2ccccc2[nH]1 | 646 s |
| Cc1ccc(NC(=O)CSc2nnc3c4cc(-c5ccc(F)cc5)nn4ccn23)c(C)c1 | 931 s |
| Cn1c(=O)c(N2CCC(C(=O)NCc3cccs3)CC2)nc2ccccc21 | 805 s |

| SMILES | RP-LC retention time |
| --- | --- |
| CCn1ncc(Cl)c1C(=O)N1CCCC1c1ccccc1F (stereo not drawn) | 922 s |
| COc1ccccc1OCC(=O)Nc1ccc2c(c1)Sc1ncccc1C(=O)N2C(C)C | 883 s |
| O=C(Nc1ccc(Br)cc1)c1ccc(S(=O)(=O)N2CCCC2)cc1 | 914 s |
| COc1ccc(-c2nc(C(=O)N3CCN(C)CC3)sc2-c2ccc(OC)cc2)cc1 | 748 s |
| CCCCOC(=O)c1ccc(NC(=O)c2cccn(Cc3cccc([N+](=O)[O-])c3)c2=O)cc1 | 1140 s |
| CCc1cc(C(=O)N2CCN(CC)CC2)nc2cc(-c3ccsc3)nn12 | 664 s |
| CCOC(=O)c1ccc(N2C=C(C(=O)OC)S(=O)(=O)c3ccc(F)cc32)cc1 | 933 s |
| CCc1cc(=O)n(CC(=O)Nc2cc(OC)cc(OC)c2)c(N2CCOCC2)n1 | 738 s |
| Cc1cc(F)ccc1NS(=O)(=O)c1cc(-c2[nH]ncc2C(=O)N2CCCC2)oc1C | 728 s |
| Cc1sc(-c2cc(C(F)(F)F)on2)cc1S(=O)(=O)NCCc1cccs1 | 1140 s |
| N#Cc1ccc(C(=O)NC(c2ccccc2)c2nnc(N3CCCCC3)o2)cc1 (stereo not drawn) | 740 s |
| Cc1cccc(N2CCN(c3ncc(S(=O)(=O)c4ccc(C)c(C)c4)c(N)n3)CC2)c1 | 1190 s |
| O=S(=O)(c1ccccc1-c1nc(-c2ccccc2)no1)N1CCN(c2ccccc2)CC1 | 1220 s |
| Fc1ccc(N2CCN(Cc3nnc(-c4ccccc4)o3)CC2)cc1 | 691 s |
| O=C(Oc1ccccc1)N(c1ccccc1)c1ccccc1 | 1160 s |
| CCCN(C)c1nccn2c(=O)n(CC(=O)Nc3cc(C)ccc3C)nc12 | 696 s |
| O=C(C1CCCO1)N1CCN(c2ccc(-n3cccn3)nn2)CC1 (stereo not drawn) | 586 s |
| Cc1ccc(S(=O)(=O)N2CCC(c3nc(C(=O)N4CCCC4)c(C)o3)CC2)cc1 | 733 s |
| CCCN1CCn2cc(C(=O)NCc3cccc(Br)c3)nc2C1 | 624 s |
| O=C(c1n[nH]c2ccccc12)N1CCCC1c1nc(-c2ccc(F)cc2F)no1 (stereo not drawn) | 930 s |
| CCN1CCCC1CNC(=O)C1c2cc(OC)c(OC)cc2C(=O)N(C)C1c1ccc(OC)cc1 (stereo not drawn) | 611 s |
| CCCCCNC(=O)c1ccc(Oc2nccnc2N2CCC(C)CC2)cc1 | 1220 s |

| SMILES | RP-LC retention time |
| --- | --- |
| COC1CCOC2(CCN(C(=O)c3ccsc3)CC2)C1 (stereo not drawn) | 676 s |
| COc1ccc(-c2cc(C(F)F)nn2-c2ccc(S(N)(=O)=O)cc2)cc1F | 997 s |
| Cc1ccc(CNC(=O)c2cn(-c3ccc(NC(=O)C(C)C)cn3)cn2)cc1 | 793 s |
| CCOC(=O)c1ccccc1NC(=O)N(Cc1cc(=O)[nH]c2ccccc12)CC(C)C | 1090 s |
| COc1ccc(CNC(=O)C2CCN(S(C)(=O)=O)c3cc(C)ccc3O2)cc1 (stereo not drawn) | 830 s |
| CCn1c(C(=O)NCCCN2CCCC2=O)c(N2CCCC2=O)c2cc(OC)ccc21 | 677 s |
| CN1CCC(NC(=O)c2cccc3c2CCN3C(=O)c2ccc(F)cc2)CC1 | 602 s |
| COc1cn(CC(=O)Nc2ccc(OC(F)(F)F)cc2)c(CO)cc1=O | 618 s |
| CN1C(=O)C2CCCCN2c2ccc(C(=O)NCCN3CCCC3)cc21 (stereo not drawn) | 981 s |
| CCS(=O)(=O)c1nc2ccc(NS(=O)(=O)c3ccc(F)cc3Cl)cc2s1 | 890 s |
| O=C(N1CCc2ccccc2C1)C1(c2ccc(F)cc2)CC1 | 905 s |
| O=C(c1ccc2c(c1)OCO2)N1CCN(c2cc(-c3ccc(F)cc3)[nH]n2)CC1 | 772 s |
| Cc1[nH]c(C(=O)Nc2cccc(F)c2)c(C)c1S(=O)(=O)N1CCCC1 | 880 s |
| CN1C(=O)C2CCCCN2c2ccc(C(=O)NCCc3ccco3)cc21 (stereo not drawn) | 815 s |
| CCN1CCC2(CC1)OC(=O)C(C)=C2C(=O)NCCc1ccccc1 | 617 s |
| Cc1nnc2cc(N3CCN(C(=O)Nc4ccc(Cl)cc4)CC3)cnn12 | 657 s |
| O=C1[C@H]2CN(Cc3cc(F)c(F)c(F)c3)C[C@H]2C(=O)N1CCc1ccccc1 | 982 s |
| Cc1cc(C)c(S(=O)(=O)NCC2CN(C)CC23CCCCC3)c(C)c1 (stereo not drawn) | 590 s |
| CCOCC1CCC2(CCN(C(=O)Cn3c(=O)oc4cc(Cl)ccc43)CC2)O1 (stereo not drawn) | 900 s |
| COc1ccc(NC(=O)Cn2nc3cc(-c4ccccc4)nc(C)n3c2=O)cc1 | 661 s |
| Fc1cc(F)cc(-c2nnc(Cc3nc(-c4ccccc4Cl)no3)o2)c1 | 1050 s |
| CCc1ccc(OCC(=O)Nc2nc(-c3ccc(F)cc3F)cs2)cc1 | 1260 s |

| SMILES | RP-LC retention time |
| --- | --- |
| CCOc1ccc(-c2nc(Cn3cnc4nc5c(cc4c3=O)CCCC5)c(C)o2)cc1 | 870 s |
| COC(=O)c1ccc2c(=O)n(-c3cc(OC)cc(OC)c3)c(N3CCC(C(N)=O)CC3)nc2c1 | 736 s |
| CCOC(=O)Cc1ccc(NC(=O)NC(C)C(=O)N2CCc3ccccc32)cc1 (stereo not drawn) | 857 s |
| CSc1cccc(NC(=O)CC2COc3ccccc3NC2=O)c1 (stereo not drawn) | 742 s |
| COc1ccc(-c2nc(-c3ccc4oc(C)nc4c3)no2)cc1OC | 978 s |
| CNC(=O)N1CCC(C2CCN(C(=O)C3CC=CC3)C2)CC1 (stereo not drawn) | 646 s |
| Cc1cc(NC(=O)C(=O)NCC2(c3cccs3)CC2)no1 | 802 s |
| O=C(Nc1ccc2c(c1)OCCO2)N1CCC2(CC1)CC(OCc1ccccc1)CCO2 (stereo not drawn) | 914 s |
| Cc1ccc(-c2nnc(N3CCC(C(=O)NCC4CCCCC4)CC3)o2)cc1 | 959 s |
| CCc1nnc(-c2cn(CC(=O)NCc3ccc(SC)cc3)c3ccccc23)o1 | 880 s |
| COc1ccc(CNC(=O)Cn2c(C)cc(-c3nnc(C4CCC4)o3)c2C)cc1 | 818 s |
| Cc1cccc(Cn2nc(-c3nc(-c4ccc(F)cc4)no3)ccc2=O)c1 | 1160 s |
| Cc1cc(NC(=O)Nc2ccc3c(ccn3C)c2)sn1 | 736 s |
| Cc1c(C(=O)N2CCCCC2)c(S(=O)(=O)N2CCN(c3ccccn3)CC2)c(C)n1C | 629 s |
| Cc1ccc(NS(=O)(=O)c2cccnc2Nc2ccc(Cl)cc2)cc1 | 1170 s |
| COc1cc(OC)cc(-n2nnc(-c3nsc(Nc4ccc(OC)c(OC)c4)n3)c2C)c1 | 933 s |
| Cc1ccc(-n2nc(N3CCCN(C(=O)c4n[nH]c5c4CCCC5)CC3)ccc2=O)cc1 | 679 s |
| N#CC1=CN(c2ccc(C(F)(F)F)cc2)c2ccccc2S1(=O)=O | 963 s |
| O=C(NC1CCCCC1)C1CCN(S(=O)(=O)c2cc(C(=O)N3CCCCCC3)cs2)CC1 | 902 s |
| CCOC(=O)/C(C#N)=C\c1c[nH]c2ccccc12 | 649 s |
| O=C1COc2ccccc2N1Cc1nc(-c2cccc(Cl)c2)no1 | 1060 s |
| CCOc1ccc(Nc2c3ccccc3nc3ccccc23)cc1 | 795 s |
